Experimental data reported in patent publication US10662476B2 (priority 2011, dated 2020).
Read-outs that look alike come from different tables or passages of the source.

Legend:
[1] = Blood concentrations of morphine glucuronides by ABCC3 -211C>T genotype; settings: for ratio to morphine concentration: heterozygous or homozygous ABCC3 -211C>T versus wild-type; for mean concentration at sampling time 10 to 15 minutes: wild-types (C/C) versus heterozygous and homozygous ABCC3 -211C>T, after single morphine dose
[2] = system: children after tonsillectomy; assay: Pain intensity before and after codeine (0-100 visual analog scale); assay type: in vivo, human; settings: POD 0-2; 0-100 VAS, 45-60 minutes after dose; SE 2
[3] = system: women following cesarean section; settings: cited from earlier work
[4] = system: children following T/TA; settings: cited from earlier work
[5] = system: children after tonsillectomy; assay: Codeine-related adverse drug reactions at home after tonsillectomy (parent diary); settings: with every one point increase in CYP2D6 TAS; POD 0-2

SMILES: CN1CC[C@]23c4c5ccc(O[C@@H]6O[C@H](C(=O)O)[C@@H](O)[C@H](O)[C@H]6O)c4O[C@H]2[C@@H](O)C=C[C@H]3[C@H]1C5 [M3G, Morphine-3-glucuronide]
- ratio to morphine concentration [1]: significantly lower
- mean concentration at sampling time 10 to 15 minutes [1]: higher

SMILES: CN1CC[C@]23c4c5ccc(O)c4O[C@H]2[C@@H](O[C@@H]2O[C@H](C(=O)O)[C@@H](O)[C@H](O)[C@H]2O)C=C[C@H]3[C@H]1C5 [M6G, morphine-6-glucuronide]
- ratio to morphine concentration [1]: significantly lower
- blood concentration at sampling time 10 to 15 minutes ([1]; twelve out of 105 children, all carrying the ABCC3 -211C>T variant, below lower quantitative limit): < 1 ng/mL
- mean concentration at sampling time 10 to 15 minutes [1]: higher

SMILES: COc1ccc2c3c1O[C@H]1[C@@H](O)C=C[C@H]4[C@@H](C2)N(C)CC[C@@]341 [codeine]
- reduction of pain intensity (average) [2]: 28 points
- reported analgesia ([3]; two patients with CYP2D6 TAS >3, discontinued due to ADRs): significant pain relief
- reported analgesia ([3]; two patients with CYP2D6 TAS=0): no analgesia
- children withdrawn from study due to intolerable side effects ([4]; PRN administration following T/TA): 6.7%
- children withdrawn from study due to intolerable side effects ([4]; around-the-clock (ATC) administration following T/TA): 17.4%
- increase of predicted number of ADRs [5]: 0.41
